Laboratory results from patent US20240382629A1, “HETEROBIVALENT AND HOMOBIVALENT AGENTS TARGETING FIBROBLAST ACTIVATION PROTEIN ALPHA AND/OR PROSTATE-SPECIFIC MEMBRANE ANTIGEN” (The Johns Hopkins University, priority 2021, published 2024).

System: U87 tumor
Experiment: Biodistribution ([^18F]JHU1221823), carrier / specific activity study
Assay type: in vivo, mouse
Source text: Biodistribution of Representative Compounds

[1] = mean (one mouse), NOD/SCID, U87 tumor, Carrier 700, 60 min post injection
[2] = mean, + 0.05 nmole carrier, 60 min post injection
[3] = mean, + 0.1 nmole carrier, 60 min post injection
[4] = mean, + 0.25 nmole carrier, 60 min post injection
[5] = mean, NOD/SCID, U87 tumor, Carrier 350 (350 mCi/μmol), 60 min post injection
[6] = mean, Nude mice, U87 tumor, Baseline (~5000 mCi/μmol), 60 min post injection
[7] = mean, Nude mice, U87 tumor, Carrier 350 (350 mCi/μmol), 60 min post injection
[8] = mean, Nude mice, U87 tumor, Carrier 700, 60 min post injection
[9] = mean, U87 tumor, Baseline, second block (stands before <NOD/SCID> heading), 60 min post injection

N#C[C@@H]1CCCN1C(=O)CNC(=O)c1ccnc2ccc(OCCCNC(=O)CCOCCOCCOCCOCCNC(=O)[C@H](CCCCNC(=O)c3ccc([18F])nc3)NC(=O)CN3CCN(CC(=O)O)CCN(CC(=O)O)CCN(CC(=O)O)CC3)cc12 [[^18F]JHU1221823]
Bladder % ID/g [1]: 8.20 % ID/g | Blood % ID/g [1]: 5.82 % ID/g | Brain % ID/g [1]: 0.16 % ID/g | Fat % ID/g [1]: 0.90 % ID/g | Femur % ID/g [1]: 2.41 % ID/g | Heart % ID/g [1]: 3.48 % ID/g | Kidney % ID/g [1]: 2.45 % ID/g | Large intestine % ID/g [1]: 2.26 % ID/g | Liver % ID/g [1]: 2.36 % ID/g | Lung % ID/g [1]: 3.56 % ID/g | Muscle % ID/g [1]: 1.99 % ID/g | Pancreas % ID/g [1]: 13.03 % ID/g | Salivary gland % ID/g [1]: 11.31 % ID/g | Small intestine % ID/g [1]: 3.48 % ID/g | Spleen % ID/g [1]: 1.46 % ID/g | Stomach % ID/g [1]: 1.64 % ID/g | Tumor % ID/g [1]: 7.79 % ID/g | Bladder % ID/g (mean, + 0.01 nmole carrier): 2.00 % ID/g | Blood % ID/g (mean, + 0.01 nmole carrier): 11.29 % ID/g | Brain % ID/g (mean, + 0.01 nmole carrier): 0.30 % ID/g | Fat % ID/g (mean, + 0.01 nmole carrier): 0.34 % ID/g | Femur % ID/g (mean, + 0.01 nmole carrier): 3.53 % ID/g | Heart % ID/g (mean, + 0.01 nmole carrier): 4.62 % ID/g | Kidney % ID/g (mean, + 0.01 nmole carrier): 2.96 % ID/g | Large intestine % ID/g (mean, + 0.01 nmole carrier): 1.62 % ID/g | Liver % ID/g (mean, + 0.01 nmole carrier): 3.09 % ID/g | Lung % ID/g (mean, + 0.01 nmole carrier): 6.15 % ID/g | Muscle % ID/g (mean, + 0.01 nmole carrier): 1.88 % ID/g | Pancreas % ID/g (mean, + 0.01 nmole carrier): 4.07 % ID/g | Salivary gland % ID/g (mean, + 0.01 nmole carrier): 7.47 % ID/g | Small intestine % ID/g (mean, + 0.01 nmole carrier): 2.20 % ID/g | Spleen % ID/g (mean, + 0.01 nmole carrier): 2.01 % ID/g | Stomach % ID/g (mean, + 0.01 nmole carrier): 1.49 % ID/g | Tumor % ID/g (mean, + 0.01 nmole carrier): 2.37 % ID/g | Bladder % ID/g [2]: 4.29 % ID/g | Blood % ID/g [2]: 7.55 % ID/g | Brain % ID/g [2]: 0.21 % ID/g | Fat % ID/g [2]: 0.78 % ID/g | Femur % ID/g [2]: 3.25 % ID/g | Heart % ID/g [2]: 3.03 % ID/g | Kidney % ID/g [2]: 2.29 % ID/g | Large intestine % ID/g [2]: 1.53 % ID/g | Liver % ID/g [2]: 2.13 % ID/g | Lung % ID/g [2]: 4.10 % ID/g | Muscle % ID/g [2]: 1.83 % ID/g | Pancreas % ID/g [2]: 5.35 % ID/g | Salivary gland % ID/g [2]: 10.93 % ID/g | Small intestine % ID/g [2]: 1.82 % ID/g | Spleen % ID/g [2]: 1.50 % ID/g | Stomach % ID/g [2]: 1.27 % ID/g | Tumor % ID/g [2]: 3.42 % ID/g | Bladder % ID/g [3]: 1.75 % ID/g | Blood % ID/g [3]: 4.10 % ID/g | Brain % ID/g [3]: 0.12 % ID/g | Fat % ID/g [3]: 1.65 % ID/g | Femur % ID/g [3]: 3.72 % ID/g | Heart % ID/g [3]: 1.84 % ID/g | Kidney % ID/g [3]: 2.01 % ID/g | Large intestine % ID/g [3]: 2.35 % ID/g | Liver % ID/g [3]: 1.16 % ID/g | Lung % ID/g [3]: 2.57 % ID/g | Muscle % ID/g [3]: 1.97 % ID/g | Pancreas % ID/g [3]: 4.67 % ID/g | Salivary gland % ID/g [3]: 8.31 % ID/g | Small intestine % ID/g [3]: 1.64 % ID/g | Spleen % ID/g [3]: 0.96 % ID/g | Stomach % ID/g [3]: 1.00 % ID/g | Tumor % ID/g [3]: 5.08 % ID/g | Bladder % ID/g [4]: 2.51 % ID/g | Blood % ID/g [4]: 1.90 % ID/g | Brain % ID/g [4]: 0.08 % ID/g | Fat % ID/g [4]: 0.51 % ID/g | Femur % ID/g [4]: 4.26 % ID/g | Heart % ID/g [4]: 0.91 % ID/g | Kidney % ID/g [4]: 1.92 % ID/g | Large intestine % ID/g [4]: 0.65 % ID/g | Liver % ID/g [4]: 0.75 % ID/g | Lung % ID/g [4]: 1.37 % ID/g | Muscle % ID/g [4]: 1.25 % ID/g | Pancreas % ID/g [4]: 1.77 % ID/g | Salivary gland % ID/g [4]: 3.31 % ID/g | Small intestine % ID/g [4]: 0.91 % ID/g | Spleen % ID/g [4]: 0.46 % ID/g | Stomach % ID/g [4]: 0.69 % ID/g | Tumor % ID/g [4]: 3.52 % ID/g | Bladder % ID/g [5]: 4.33 % ID/g | Blood % ID/g [5]: 4.14 % ID/g | Brain % ID/g [5]: 0.09 % ID/g | Fat % ID/g [5]: 0.85 % ID/g | Femur % ID/g [5]: 3.43 % ID/g | Heart % ID/g [5]: 2.14 % ID/g | Kidney % ID/g [5]: 2.13 % ID/g | Large intestine % ID/g [5]: 2.08 % ID/g | Liver % ID/g [5]: 1.76 % ID/g | Lung % ID/g [5]: 2.74 % ID/g | Muscle % ID/g [5]: 2.03 % ID/g | Pancreas % ID/g [5]: 10.18 % ID/g | Salivary gland % ID/g [5]: 9.49 % ID/g | Small intestine % ID/g [5]: 2.29 % ID/g | Spleen % ID/g [5]: 1.80 % ID/g | Stomach % ID/g [5]: 1.47 % ID/g | Tumor % ID/g [5]: 8.64 % ID/g | Bladder % ID/g [6]: 2.38 % ID/g | Blood % ID/g [6]: 11.46 % ID/g | Brain % ID/g [6]: 0.23 % ID/g | Fat % ID/g [6]: 0.99 % ID/g | Femur % ID/g [6]: 2.41 % ID/g | Heart % ID/g [6]: 5.54 % ID/g | Kidney % ID/g [6]: 2.91 % ID/g | Large intestine % ID/g [6]: 1.40 % ID/g | Liver % ID/g [6]: 3.31 % ID/g | Lung % ID/g [6]: 6.97 % ID/g | Muscle % ID/g [6]: 1.75 % ID/g | Pancreas % ID/g [6]: 3.36 % ID/g | Salivary gland % ID/g [6]: 6.91 % ID/g | Small intestine % ID/g [6]: 2.70 % ID/g | Spleen % ID/g [6]: 2.06 % ID/g | Stomach % ID/g [6]: 1.23 % ID/g | Tumor % ID/g [6]: 2.33 % ID/g | Bladder % ID/g [7]: 1.73 % ID/g | Blood % ID/g [7]: 5.84 % ID/g | Brain % ID/g [7]: 0.14 % ID/g | Fat % ID/g [7]: 0.89 % ID/g | Femur % ID/g [7]: 4.15 % ID/g | Heart % ID/g [7]: 2.50 % ID/g | Kidney % ID/g [7]: 2.07 % ID/g | Large intestine % ID/g [7]: 1.76 % ID/g | Liver % ID/g [7]: 1.90 % ID/g | Lung % ID/g [7]: 3.45 % ID/g | Muscle % ID/g [7]: 2.41 % ID/g | Pancreas % ID/g [7]: 6.29 % ID/g | Salivary gland % ID/g [7]: 11.15 % ID/g | Small intestine % ID/g [7]: 2.42 % ID/g | Spleen % ID/g [7]: 1.29 % ID/g | Stomach % ID/g [7]: 1.56 % ID/g | Tumor % ID/g [7]: 2.27 % ID/g | Bladder % ID/g [8]: 2.23 % ID/g | Blood % ID/g [8]: 9.94 % ID/g | Brain % ID/g [8]: 0.20 % ID/g | Fat % ID/g [8]: 0.49 % ID/g | Femur % ID/g [8]: 3.06 % ID/g | Heart % ID/g [8]: 4.65 % ID/g | Kidney % ID/g [8]: 2.53 % ID/g | Large intestine % ID/g [8]: 1.62 % ID/g | Liver % ID/g [8]: 2.81 % ID/g | Lung % ID/g [8]: 5.57 % ID/g | Muscle % ID/g [8]: 2.07 % ID/g | Pancreas % ID/g [8]: 3.91 % ID/g | Salivary gland % ID/g [8]: 8.13 % ID/g | Small intestine % ID/g [8]: 2.18 % ID/g | Spleen % ID/g [8]: 1.72 % ID/g | Stomach % ID/g [8]: 1.37 % ID/g | Tumor % ID/g [8]: 2.01 % ID/g | Bladder % ID/g [9]: 6.92 % ID/g | Blood % ID/g [9]: 10.99 % ID/g | Brain % ID/g [9]: 0.22 % ID/g | Fat % ID/g [9]: 0.62 % ID/g | Femur % ID/g [9]: 2.37 % ID/g | Heart % ID/g [9]: 6.95 % ID/g | Kidney % ID/g [9]: 3.41 % ID/g | Large intestine % ID/g [9]: 2.18 % ID/g | Liver % ID/g [9]: 4.38 % ID/g | Lung % ID/g [9]: 7.03 % ID/g | Muscle % ID/g [9]: 1.64 % ID/g | Pancreas % ID/g [9]: 8.17 % ID/g | Salivary gland % ID/g [9]: 11.89 % ID/g | Small intestine % ID/g [9]: 3.66 % ID/g | Spleen % ID/g [9]: 2.16 % ID/g | Stomach % ID/g [9]: 1.81 % ID/g | Tumor % ID/g [9]: 3.08 % ID/g | Bladder % ID/g (mean, carrier not given): 4.53 % ID/g | Blood % ID/g (mean, carrier not given): 9.54 % ID/g | Brain % ID/g (mean, carrier not given): 0.22 % ID/g | Fat % ID/g (mean, carrier not given): 1.07 % ID/g | Femur % ID/g (mean, carrier not given): 2.83 % ID/g | Heart % ID/g (mean, carrier not given): 4.65 % ID/g | Kidney % ID/g (mean, carrier not given): 2.73 % ID/g | Large intestine % ID/g (mean, carrier not given): 1.49 % ID/g | Liver % ID/g (mean, carrier not given): 2.99 % ID/g | Lung % ID/g (mean, carrier not given): 5.72 % ID/g | Muscle % ID/g (mean, carrier not given): 1.78 % ID/g | Pancreas % ID/g (mean, carrier not given): 2.14 % ID/g | Salivary gland % ID/g (mean, carrier not given): 6.93 % ID/g | Small intestine % ID/g (mean, carrier not given): 3.02 % ID/g | Spleen % ID/g (mean, carrier not given): 2.15 % ID/g | Stomach % ID/g (mean, carrier not given): 1.14 % ID/g | Tumor % ID/g (mean, carrier not given): 5.71 % ID/g
